This is an account of results in patent US20090011103A1, “Composition comprising polyphenol” (Conopco, Inc. d/b/a Unilever, priority 2007, published 2009).

Assay [1] deals with mesenteric resistance arteries of SHR. As to the kind of experiment: Reactivity of isolated arteries: dilator effect during contraction induced by 40 mmol/L K+. Set-up: species or system Spontaneously Hypertensive Rats (SHR). As for the experimental part: Segments of 2nd order mesenteric artery side branches were isolated from 14 weeks old male Spontaneously Hypertensive Rats (SHR). Two stainless-steel wires (diameter 40 μm) were inserted in the lumen of the arterial segments, which were then mounted in organ chambers between an isometric force transducer and a displacement device (Danish Myotechnology by J. P. Trading, Denmark). The organ chambers were filled with Krebs-Ringer bicarbonate solution which was maintained at 37° C. and continuously aerated with 95% O2 and 5% CO2. Before the actual experiments started, arterial segments were stretched to their individual optimal lumen diameter for mechanical performance, i.e. the diameter at which maximal contractile responses to noradrenaline (10 μmol/L) were obtained. In each experiment four second order mesenteric resistance arterial segments from one animal were mounted in individual organ chambers and studied in parallel. […]
For the analysis of the acute effects of the mixtures on K+-induced contraction, increasing concentrations of the mixtures (0.1-100 umol/L) were administered on top of the stable contractions and were left in contact with the arterial segments for 5-7 min to make sure that either no effect or a stable effect was reached. […] In this way, the effects of different exposure times to the mixtures (7, 30 and 90 min) on K+-induced contraction, could be evaluated. […]
Active wall tension (AWT) was calculated by subtracting the resting wall tension.
All contractile responses (AWT in the presence of stimuli, solvent and mixes of ingredients) were next expressed as a percentage of the contractile response (AWT) to 10 uM noradrenaline at the end of the normalisation period, i.e. before exposure of the arterial segments to solvent or mixes of ingredients.
Effects of increasing concentrations of the solvent and of the mixes (0.1 to 100 umol/L) during contractile responses to 40 mmol/L K+, were calculated as % change of the level of pre-contraction. […]

The conditions of assay [2]: meeting abstract of Experimental biology 2007; read-out: vasorelaxing properties, 50% dose; cited from earlier work.

Consider `O=C(O)C=Cc1ccc(O)cc1` [p-coumaric acid, 3-(4-hydroxyphenyl)-2-prepenoic acid], for which the “influence on the dilation of the arteries” value in assay [1] (at a low concentration, by comparing the effect of different mixtures) is “significant influence on the dilation of the arteries”. In addition, the EC50 in assay [1] (isolated SHR mesenteric arteries, K+ (40 mmol/L) pre-contraction, deduced by comparing different mixtures (Plackett-Burman design), corrected for solvent, read-out: EC50 of dilation of the arteries) is 7.5 µM; in assay [2], 0.03 µM. Besides, in assay [1] (isolated SHR mesenteric arteries, K+ (40 mmol/L) pre-contraction, mixtures 0.1-100 umol/L), the “concentration at which maximum dilatation was obtained” value amounted to 100 µM.
